One series has as its target Cytochrome P450 3A4 (Homo sapiens, UniProt P08684). As to conditions: bti-tn-5b1-4.
Series [1] can be described thus: DRUGMATRIX: Serotonin (5-Hydroxytryptamine) 5-HT3 radioligand binding (ligand: [3H] GR-65630). The format is cell membranes, Membrane. As to conditions: hek293, Not Active = under 50% inhibition at 10 µM.
Series [2] deals with T1, Muscarinic acetylcholine receptor M5 (Homo sapiens, UniProt P08912).
T1 sequence (P08912 whole entry): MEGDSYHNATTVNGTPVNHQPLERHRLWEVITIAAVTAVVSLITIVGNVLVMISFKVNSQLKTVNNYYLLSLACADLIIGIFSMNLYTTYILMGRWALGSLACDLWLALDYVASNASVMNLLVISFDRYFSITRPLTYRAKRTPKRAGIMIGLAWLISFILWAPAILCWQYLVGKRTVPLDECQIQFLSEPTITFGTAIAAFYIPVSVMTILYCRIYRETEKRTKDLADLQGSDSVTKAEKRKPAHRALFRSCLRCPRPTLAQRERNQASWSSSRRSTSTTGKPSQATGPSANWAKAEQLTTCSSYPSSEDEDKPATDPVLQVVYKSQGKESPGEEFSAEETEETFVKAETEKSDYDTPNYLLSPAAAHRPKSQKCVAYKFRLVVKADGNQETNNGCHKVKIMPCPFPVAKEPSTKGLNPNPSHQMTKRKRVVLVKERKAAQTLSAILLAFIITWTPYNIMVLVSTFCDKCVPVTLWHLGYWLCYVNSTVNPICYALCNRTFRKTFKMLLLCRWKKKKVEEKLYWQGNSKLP
It is filed as cell membranes, CHO-K1, Membrane. As to conditions: cho-k1.

In series [3] the target is C-C chemokine receptor type 5 (Homo sapiens, UniProt P51681). The format is cell membranes, HEK293, Membrane. As to conditions: hek293. Note: in other assays of this panel Not Active means under 50% inhibition at 10 µM.
Chain of C-C chemokine receptor type 5 (P51681 whole entry): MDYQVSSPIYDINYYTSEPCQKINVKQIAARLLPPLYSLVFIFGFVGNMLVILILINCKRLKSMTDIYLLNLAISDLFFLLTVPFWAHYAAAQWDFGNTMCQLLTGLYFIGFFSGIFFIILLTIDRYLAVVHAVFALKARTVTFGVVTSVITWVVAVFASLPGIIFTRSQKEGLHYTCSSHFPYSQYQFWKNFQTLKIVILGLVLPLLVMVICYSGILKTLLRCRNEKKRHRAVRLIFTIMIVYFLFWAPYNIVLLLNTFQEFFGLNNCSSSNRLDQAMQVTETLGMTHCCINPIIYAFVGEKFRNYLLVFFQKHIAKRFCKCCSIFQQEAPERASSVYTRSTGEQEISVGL
Series [4] deals with Vascular endothelial growth factor receptor 1 (Homo sapiens, UniProt P17948). The format is cell-based. As to conditions: huvec.
Chain of Vascular endothelial growth factor receptor 1 (P17948 whole entry): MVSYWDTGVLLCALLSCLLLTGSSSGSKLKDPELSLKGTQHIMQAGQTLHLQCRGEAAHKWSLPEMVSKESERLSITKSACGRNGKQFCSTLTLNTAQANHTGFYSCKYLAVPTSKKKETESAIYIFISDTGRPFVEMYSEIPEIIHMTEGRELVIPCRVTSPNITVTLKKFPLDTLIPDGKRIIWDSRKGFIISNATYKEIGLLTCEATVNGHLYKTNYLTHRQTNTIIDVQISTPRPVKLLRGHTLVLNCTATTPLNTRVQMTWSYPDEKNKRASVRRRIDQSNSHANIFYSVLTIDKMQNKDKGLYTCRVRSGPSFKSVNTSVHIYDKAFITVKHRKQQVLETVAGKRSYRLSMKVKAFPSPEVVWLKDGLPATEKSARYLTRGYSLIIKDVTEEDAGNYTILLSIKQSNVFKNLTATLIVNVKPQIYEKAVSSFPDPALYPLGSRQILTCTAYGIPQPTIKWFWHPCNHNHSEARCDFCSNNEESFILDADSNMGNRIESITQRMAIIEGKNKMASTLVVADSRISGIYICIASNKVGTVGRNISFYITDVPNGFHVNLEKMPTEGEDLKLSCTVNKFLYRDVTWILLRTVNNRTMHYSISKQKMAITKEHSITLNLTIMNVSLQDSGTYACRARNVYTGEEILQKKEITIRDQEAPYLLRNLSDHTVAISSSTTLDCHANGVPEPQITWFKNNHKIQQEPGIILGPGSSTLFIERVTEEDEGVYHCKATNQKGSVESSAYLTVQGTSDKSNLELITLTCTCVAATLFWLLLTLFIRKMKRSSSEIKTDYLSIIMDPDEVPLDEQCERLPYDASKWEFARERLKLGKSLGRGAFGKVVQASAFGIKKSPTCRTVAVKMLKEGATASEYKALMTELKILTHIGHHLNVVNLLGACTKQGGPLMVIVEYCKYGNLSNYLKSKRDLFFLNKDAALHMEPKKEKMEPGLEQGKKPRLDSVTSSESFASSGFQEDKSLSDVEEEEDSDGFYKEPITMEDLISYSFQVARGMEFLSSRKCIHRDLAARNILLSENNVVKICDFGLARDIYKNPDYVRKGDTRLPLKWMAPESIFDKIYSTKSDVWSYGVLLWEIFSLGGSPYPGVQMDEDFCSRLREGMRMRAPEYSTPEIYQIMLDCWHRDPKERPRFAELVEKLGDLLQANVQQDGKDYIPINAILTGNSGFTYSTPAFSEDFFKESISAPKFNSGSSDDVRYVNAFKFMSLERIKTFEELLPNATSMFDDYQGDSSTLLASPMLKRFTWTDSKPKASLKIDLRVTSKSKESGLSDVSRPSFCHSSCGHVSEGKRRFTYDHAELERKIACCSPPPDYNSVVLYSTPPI
For another series, the target named is Nitric oxide synthase 1 (Rattus norvegicus, UniProt P29476). The format is tissue-based, Cerebellum. Note: in other assays of this panel Not Active means under 50% inhibition at 10 µM.
Chain of Nitric oxide synthase 1 (P29476 whole entry): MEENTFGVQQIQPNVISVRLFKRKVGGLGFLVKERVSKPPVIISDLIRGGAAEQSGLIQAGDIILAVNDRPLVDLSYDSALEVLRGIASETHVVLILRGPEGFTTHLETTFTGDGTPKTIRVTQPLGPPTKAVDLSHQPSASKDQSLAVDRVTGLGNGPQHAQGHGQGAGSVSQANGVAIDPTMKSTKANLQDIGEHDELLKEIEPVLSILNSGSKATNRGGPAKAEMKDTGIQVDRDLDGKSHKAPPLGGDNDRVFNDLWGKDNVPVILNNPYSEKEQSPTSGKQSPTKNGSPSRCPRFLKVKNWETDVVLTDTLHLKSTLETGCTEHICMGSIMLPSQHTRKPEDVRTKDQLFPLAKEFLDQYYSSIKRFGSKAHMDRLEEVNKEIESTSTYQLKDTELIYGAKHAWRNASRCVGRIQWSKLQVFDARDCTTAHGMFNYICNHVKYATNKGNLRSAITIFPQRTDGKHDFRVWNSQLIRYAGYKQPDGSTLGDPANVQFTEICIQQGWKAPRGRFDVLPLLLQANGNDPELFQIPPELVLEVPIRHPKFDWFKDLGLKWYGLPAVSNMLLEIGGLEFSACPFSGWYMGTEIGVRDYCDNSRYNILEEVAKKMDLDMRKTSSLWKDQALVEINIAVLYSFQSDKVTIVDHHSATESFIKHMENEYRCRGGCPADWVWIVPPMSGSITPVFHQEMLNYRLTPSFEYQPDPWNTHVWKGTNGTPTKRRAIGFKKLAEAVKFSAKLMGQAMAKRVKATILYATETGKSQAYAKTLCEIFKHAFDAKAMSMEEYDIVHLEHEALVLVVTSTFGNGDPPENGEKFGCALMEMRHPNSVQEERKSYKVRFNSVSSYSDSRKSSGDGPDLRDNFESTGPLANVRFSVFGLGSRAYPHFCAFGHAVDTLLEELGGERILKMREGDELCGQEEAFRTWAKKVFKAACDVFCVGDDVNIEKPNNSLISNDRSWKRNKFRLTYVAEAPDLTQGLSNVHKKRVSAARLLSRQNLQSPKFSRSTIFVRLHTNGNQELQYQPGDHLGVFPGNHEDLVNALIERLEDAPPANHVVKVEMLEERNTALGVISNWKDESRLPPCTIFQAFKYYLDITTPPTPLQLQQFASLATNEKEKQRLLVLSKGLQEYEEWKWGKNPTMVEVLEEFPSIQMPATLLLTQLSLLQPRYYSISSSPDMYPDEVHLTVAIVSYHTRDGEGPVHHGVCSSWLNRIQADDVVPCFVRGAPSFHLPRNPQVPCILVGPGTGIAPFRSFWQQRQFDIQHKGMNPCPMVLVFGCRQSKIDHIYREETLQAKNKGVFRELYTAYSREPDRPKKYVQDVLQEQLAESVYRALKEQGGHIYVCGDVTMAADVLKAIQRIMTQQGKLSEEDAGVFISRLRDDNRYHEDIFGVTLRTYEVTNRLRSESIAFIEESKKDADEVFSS
Another series deals with T2, Estrogen receptor (Homo sapiens, UniProt P03372).
T2 sequence (P03372 whole entry): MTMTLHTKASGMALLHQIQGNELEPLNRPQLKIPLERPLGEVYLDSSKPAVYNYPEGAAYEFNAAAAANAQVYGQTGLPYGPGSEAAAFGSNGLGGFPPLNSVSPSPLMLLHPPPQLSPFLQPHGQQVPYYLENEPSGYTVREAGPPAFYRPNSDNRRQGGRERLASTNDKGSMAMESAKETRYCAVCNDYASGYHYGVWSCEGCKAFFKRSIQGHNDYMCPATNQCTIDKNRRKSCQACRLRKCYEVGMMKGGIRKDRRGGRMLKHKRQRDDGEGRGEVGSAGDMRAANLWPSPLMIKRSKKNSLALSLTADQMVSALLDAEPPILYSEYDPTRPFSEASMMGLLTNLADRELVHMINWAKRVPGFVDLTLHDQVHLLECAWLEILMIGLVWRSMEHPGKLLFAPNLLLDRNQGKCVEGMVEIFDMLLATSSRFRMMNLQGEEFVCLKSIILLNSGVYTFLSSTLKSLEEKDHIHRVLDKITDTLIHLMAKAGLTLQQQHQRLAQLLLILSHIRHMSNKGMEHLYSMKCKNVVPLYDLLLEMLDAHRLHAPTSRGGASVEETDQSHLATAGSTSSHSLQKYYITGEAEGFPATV
As to conditions: sf9.

The values that follow come from ChEMBL document CHEMBL1909046, “DrugMatrix in vitro pharmacology data”.

Chain of Cytochrome P450 3A4 (P08684 whole entry): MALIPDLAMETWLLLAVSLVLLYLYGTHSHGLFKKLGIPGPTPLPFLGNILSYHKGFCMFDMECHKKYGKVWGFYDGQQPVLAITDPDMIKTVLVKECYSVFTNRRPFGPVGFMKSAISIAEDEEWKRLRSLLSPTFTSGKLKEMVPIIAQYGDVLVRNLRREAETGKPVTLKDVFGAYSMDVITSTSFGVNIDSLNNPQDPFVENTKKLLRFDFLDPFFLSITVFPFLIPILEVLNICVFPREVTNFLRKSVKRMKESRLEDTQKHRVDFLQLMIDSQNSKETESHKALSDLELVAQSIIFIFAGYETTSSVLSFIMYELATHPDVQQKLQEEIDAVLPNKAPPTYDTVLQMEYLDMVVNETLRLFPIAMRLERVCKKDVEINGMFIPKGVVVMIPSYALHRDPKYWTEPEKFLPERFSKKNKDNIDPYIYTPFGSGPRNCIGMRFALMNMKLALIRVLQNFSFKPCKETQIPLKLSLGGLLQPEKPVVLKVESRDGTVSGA

For the compound `N=C(N)NC(=O)c1nc(Cl)c(N)nc1N` [AMILORIDE], the IC50 result (against Cytochrome P450 3A4; in series [1]; in series [2]; in series [3]; in series [4]; against Nitric oxide synthase 1) was “Not Active” in each case. In addition, the IC50 (in general, the concentration needed to halve the response being measured) against Estrogen receptor is recorded as “Not Active”. Further, the Ki result (on Cytochrome P450 3A4; in series [1]) was “Not Active” each time.
In the case of `Cc1cc(=O)n(-c2ccccc2)n1C` [ANTIPYRINE], the IC50 result (at Cytochrome P450 3A4; in series [1]; in series [2]; in series [3]; in series [4]; on Nitric oxide synthase 1) was “Not Active” throughout. Further, on Estrogen receptor, the IC50 result was “Not Active”. The Ki entry (on Cytochrome P450 3A4; in series [1]) was “Not Active” throughout.
As to `CN1C(=O)COc2c(C(=O)NC3CN4CCC3CC4)cc(Cl)cc21` (stereo not drawn) [AZASETRON], the IC50 result at Cytochrome P450 3A4 was “Not Active”; in series [1] (read-out: IC50), 13 nM; in series [2], “Not Active”; in series [3] it was “Not Active”; in series [4], “Not Active”; against Nitric oxide synthase 1 it was “Not Active”. For the same compound, the IC50 result on Estrogen receptor was “Not Active”. Further, the Ki – broadly, the equilibrium dissociation constant of an inhibitor or competing ligand from its target – is “Not Active” at Cytochrome P450 3A4 and 2.89 nM in series [1] (read-out: Ki).
In the case of `C[C@H]1C[C@H]2[C@@H]3CCC4=CC(=O)C=C[C@]4(C)[C@@]3(Cl)[C@@H](O)C[C@]2(C)[C@@]1(O)C(=O)CO` [BECLOMETHASONE], the IC50 entry (against Cytochrome P450 3A4; in series [1]; in series [2]; in series [3]; in series [4]; against Nitric oxide synthase 1) was “Not Active” each time. Moreover, on Estrogen receptor, the 50% inhibitory concentration (IC50) result was “Not Active”. Moreover, the Ki result (at Cytochrome P450 3A4; in series [1]) was “Not Active” each time.
Turning to `Nc1c(CC(=O)O)cccc1C(=O)c1ccc(Br)cc1` [BROMFENAC], the IC50 result (against Cytochrome P450 3A4; in series [1]; in series [2]; in series [3]; in series [4]; on Nitric oxide synthase 1) was “Not Active” throughout. At Estrogen receptor, the IC50 entry is “Not Active”. Besides, the inhibition constant (Ki) result (on Cytochrome P450 3A4; in series [1]) was “Not Active” each time.
With `CCCCN1CCCCC1C(=O)Nc1c(C)cccc1C.Cl` (stereo not drawn) [BUPIVACAINE HYDROCHLORIDE], the IC50 result (on Cytochrome P450 3A4; in series [1]; in series [2]; in series [3]; in series [4]; against Nitric oxide synthase 1) was “Not Active” in each case. For the same compound, the concentration for half-maximal inhibition (IC50) entry on Estrogen receptor was “Not Active”. Further, the Ki result (on Cytochrome P450 3A4; in series [1]) was “Not Active” throughout.
With `C[C@@]12C(=O)OC(=O)[C@]1(C)[C@H]1CC[C@@H]2O1` [CANTHARIDIN], the IC50 entry (against Cytochrome P450 3A4; in series [1]; in series [2]; in series [3]; in series [4]; against Nitric oxide synthase 1) was “Not Active” throughout. Further, at Estrogen receptor, the IC50 result is “Not Active”. In addition, the Ki entry (on Cytochrome P450 3A4; in series [1]) was “Not Active” each time.
On to `C=C1CC[C@H](O)C/C1=C/C=C1\CCC[C@]2(C)[C@@H]([C@H](C)CCCC(C)C)CC[C@@H]12` [CHOLECALCIFEROL], for which the IC50 entry (against Cytochrome P450 3A4; in series [1]; in series [2]; in series [3]; in series [4]; against Nitric oxide synthase 1) was “Not Active” in each case. Moreover, the IC50 result against Estrogen receptor is reported as “Not Active”. Moreover, the Ki entry (at Cytochrome P450 3A4; in series [1]) was “Not Active” in each case.
Regarding `C[N+](C)(C)CCO.[Cl-]` [CHOLINE CHLORIDE], the IC50 entry (against Cytochrome P450 3A4; in series [1]; in series [2]; in series [3]; in series [4]; against Nitric oxide synthase 1) was “Not Active” in each case. In addition, the IC50 entry at Estrogen receptor was “Not Active”. In addition, the Ki entry (at Cytochrome P450 3A4; in series [1]) was “Not Active” each time.
Turning to `CC(=O)OCC(=O)[C@@]1(O)CC[C@H]2[C@@H]3CCC4=CC(=O)CC[C@]4(C)[C@H]3C(=O)C[C@@]21C` [CORTISONE ACETATE], the IC50 result (at Cytochrome P450 3A4; in series [1]; in series [2]; in series [3]; in series [4]; against Nitric oxide synthase 1) was “Not Active” in each case. Further, the IC50 result against Estrogen receptor is “Not Active”. In addition, the Ki result (at Cytochrome P450 3A4; in series [1]) was “Not Active” each time.
Regarding `O=c1ccc2ccccc2o1` [COUMARIN], the IC50 result (against Cytochrome P450 3A4; in series [1]; in series [2]; in series [3]; in series [4]; on Nitric oxide synthase 1) was “Not Active” each time. Moreover, on Estrogen receptor, the IC50 result is on record as “Not Active”. The Ki result (on Cytochrome P450 3A4; in series [1]) was “Not Active” each time.
In the case of `CN(C)/N=N/c1[nH]cnc1C(N)=O` [DACARBAZINE], the IC50 entry (against Cytochrome P450 3A4; in series [1]; in series [2]; in series [3]; in series [4]; on Nitric oxide synthase 1) was “Not Active” each time. On Estrogen receptor, the IC50 result is recorded as “Not Active”. Moreover, the Ki entry (on Cytochrome P450 3A4; in series [1]) was “Not Active” each time.
As to `COc1ccc2c(c1)[C@]13CCCC[C@@H]1[C@H](C2)N(C)CC3` [DEXTROMETHORPHAN], the IC50 result (at Cytochrome P450 3A4; in series [1]; in series [2]; in series [3]; in series [4]; against Nitric oxide synthase 1) was “Not Active” in each case. In addition, on Estrogen receptor, the IC50 result is recorded as “Not Active”. Besides, the Ki result (on Cytochrome P450 3A4; in series [1]) was “Not Active” throughout.
Consider `COP(=O)(OC)OC=C(Cl)Cl` [DICHLORVOS], for which the IC50 result (against Cytochrome P450 3A4; in series [1]; in series [2]; in series [3]; in series [4]; against Nitric oxide synthase 1) was “Not Active” in each case. The IC50 entry on Estrogen receptor is given as “Not Active”. Further, the Ki result (on Cytochrome P450 3A4; in series [1]) was “Not Active” in each case.
On to `O=C(O)Cc1ccccc1Nc1c(Cl)cccc1Cl` [DICLOFENAC], for which the IC50 result (at Cytochrome P450 3A4; in series [1]; in series [2]; in series [3]; in series [4]; at Nitric oxide synthase 1) was “Not Active” each time. For the same compound, on Estrogen receptor, the IC50 result is “Not Active”. Besides, the Ki entry (at Cytochrome P450 3A4; in series [1]) was “Not Active” in each case.
As to `C[C@H]1O[C@@H](O[C@H]2[C@@H](O)C[C@H](O[C@H]3[C@@H](O)C[C@H](O[C@H]4CC[C@@]5(C)[C@H](CC[C@@H]6[C@@H]5CC[C@]5(C)[C@@H](C7=CC(=O)OC7)CC[C@]65O)C4)O[C@@H]3C)O[C@@H]2C)C[C@H](O)[C@@H]1O` [DIGITOXIN], the IC50 entry (against Cytochrome P450 3A4; in series [1]; in series [2]; in series [3]; in series [4]; at Nitric oxide synthase 1) was “Not Active” in each case. The IC50 result at Estrogen receptor is “Not Active”. In addition, the Ki entry (on Cytochrome P450 3A4; in series [1]) was “Not Active” throughout.
As to `COc1cccc2c1C(=O)c1c(O)c3c(c(O)c1C2=O)C[C@@](O)(C(=O)CO)C[C@@H]3O[C@H]1C[C@H](N)[C@H](O)[C@H](C)O1` [DOXORUBICIN], the IC50 entry (at Cytochrome P450 3A4; in series [1]; in series [2]; in series [3]; in series [4]; on Nitric oxide synthase 1) was “Not Active” in each case. The half-maximal inhibitory concentration (IC50) result at Estrogen receptor is given as “Not Active”. The Ki entry (at Cytochrome P450 3A4; in series [1]) was “Not Active” each time.
